Patent US20260125356A1, “TREATMENT OF LEISHMANIASIS” (THE UNIVERSITY OF DURHAM, priority 2022, published 2026)
≈ marks a conversion by molar mass, not a printed value.

Experiments:
L. amazonensis-GFP = experiment: In vivo intralesional treatment of L. amazonensis-GFP (mouse ear); settings: 0.4 mg in 10 μL PBS, once a week for five weeks
Description: FIG. 12 evaluation of the parasitic load of intralesional treatment of L. amazonensis-GFP (mouse ear) after treatment with PBS, glucantime, compound 53 (VJL), clemastine fumarate (CF) or clemastine fumarate in a polymeric nanoparticle (NP-CF);
Mice were infected with L. amazonensis and were then treated intralesionally (IL) with five doses of 10 μL PBS only (control) or 10 μL of PBS containing 0.4 mg of glucantime, compound 53 (VJL), clemastine fumarate (CF) or clemastine fumarate in a polymeric nanoparticle (NP-CF). The mice were treated once a week for five weeks.

[1] = tested on: L. donovani promastigotes; experiment: L. donovani promastigote dose response assay (resazurin); type: cell-based; settings: Leishmania donovani, 72 h, read-out: EC50 (L. don)/μM
[2] = tested on: T. brucei bloodstream trypomastigotes; experiment: T. brucei bloodstream trypomastigote dose response assay; type: cell-based; settings: Trypanosoma brucei, 48 h, read-out: EC50 (T. brucei)/μM
ΔrfaC mutant E. coli = experiment: Antibacterial MIC/growth assay, ΔrfaC mutant E. coli; type: cell-based; settings: 7.8 to 500 μM, 16 hours at 37° C.
Description: (§1) DMSO was used as a solvent control at a maximum final concentration of 10% (a greater percentage than would be achieved using the compounds at the concentrations in question). Plates were incubated at 37° C. with shaking for 16 hours before measuring absorbance at 600 nm. These values were then used to calculate percentage growth at each dilution of compound in comparison to growth in the absence of compound. The following day, the contents of each well were resuspended using a multichannel pipette, and 5 μl from each well was then applied to LB agar plates. These were incubated at 30° C. in a stationary incubator for 16 hours before imaging.

[3] = tested on: wild-type E. coli (BW25113); experiment: Antibacterial MIC/growth assay, wild-type E. coli; type: cell-based; settings: 7.8 to 500 μM, 16 hours at 37° C.
Description: as §1

Kinetic solubility = settings: kinetic from dmso stock
T. cruzi epimastigotes = experiment: T. cruzi epimastigote dose response assay; type: cell-based; settings: Trypanosoma cruzi, 72 h, read-out: EC50 (T. cruzi)/μM
visceral leishmaniasis = experiment: In vivo efficacy against experimental visceral leishmaniasis; settings: single dose 10 mg/kg, BALB/c mice
Description: FIG. 9 evaluation of efficacy against visceral leishmaniasis in BALB/c mice in (A) the liver and (B) the spleen through Leishman donovani units (LDU) (n=4);
FIG. 10 evaluation of efficacy against visceral leishmaniasis in BALB/c mice in bone marrow (n=4);
FIG. 11 evaluation of efficacy against visceral leishmaniasis in BALB/c mice in (A) the liver and (B) the spleen through Limiting Dilution Assay (LDA) (n=4);
Mice were infected with 2×10^7 promastigotes and kept for 2 months. After 2 months mice were treated with a single dose of phosphate-buffered saline (PBS), an empty liposome formulation (E.Lip), 10 mg/kg of body weight of Drug 3R, 10 mg/kg of body weight of compound 53 (identified in the Figures as drug 10), a liposome composition comprising 10 mg/kg of body weight of Drug 3R (Lip Drug 3R) or a liposome composition comprising 10 mg/kg of body weight of compound 53 (Lip Drug 10). […] The mice were then kept for one month and then sacrificed. Infection in liver and spleen was determined through LDU and LDA (FIGS. 9 and 11), infection in bone marrow was determined by counting amastigotes/1000 cells (FIG. 10).
Liposomal compositions were prepared by incorporation of an active compound into the lipid bilayer of SA-bearing choline liposome (lipid ratio, 7:2). […]

[4] = tested on: L. amazonensis intracellular amastigotes; experiment: Killing of intracellular amastigotes in infected peritoneal macrophages; type: cell-based; settings: Leishmania amazonensis, Peritoneal macrophage, treated 48 h, read-out: EC50 (amastigote)
Description: Peritoneal macrophages were plated at 2×10^5/well in 24 well-plate onto circular glass coverslips with medium RPMI+10% HIFCS. After 24 h, macrophages were infected with L. amazonensis (1:10) and cultured at 37″C for 4 h and washed to remove non internalized amastigotes. At 24 h post infection, cells were treated with serial dilutions of compound 53 or Pentostam for 48 h at 37° C. in medium RPMI+5% HIFCS. Afterwards, cells were stained with Rapid Panoptic and the number of intracellular amastigotes in 100 macrophages was counted. EC50 values were calculated by non-linear regression. Means±SD (n=2);
The ability of compound 53 to kill intracellular amastigotes for cells infected with L. amazonensis was assessed and the cytotoxicity of the compound was investigated. The results are shown in FIGS. 6 to 8 and Table 8 below.

S. aureus (FDA209P) = experiment: Antibacterial MIC/growth assay, S. aureus; type: cell-based; settings: 16 hours at 37° C., absorbance 600 nm
Description: as §1

[5] = Cytotoxicity against macrophages (resazurin); type: cell-based; settings: mouse, bone marrow-derived macrophages (BMDM), read-out: CC50 (macrophage)
Description: Mouse bone marrow-derived macrophages (BMDM) were plated in 96 well-plate at 1×10^5/well with medium RPMI+10% HIFCS. After 24 h, compound 53 and Pentostam were added at the indicated concentrations, and cells cultured for further 48 h with medium RPMI+5% HIFCS. […] Pentostam CC50 was from curve regression extrapolation. Means±SD (n=5);
The selectivity index (SI) was calculated by dividing the half maximal cytotoxic concentration (CC50) by the half maximal effective concentration (EC50). CC50 was extrapolated for pentostam.

For CNC(=O)c1ccc(OCCCN2CCOCC2)cc1NC(=O)c1ccc([N+](=O)[O-])s1 [Compound 53, N-[2-(methylcarbamoyl)-5-[3″-(morpholin-4′″-yl)propoxy]phenyl]-5′-nitrothiophene-2′-carboxamide], the “parasitic load after intralesional treatment” value (L. amazonensis-GFP) was “effective treatment”, the EC50 [1] was 0.044 µM and the EC50 [2] was 0.29 ± 0.1 µM. The “inhibition of growth of ΔrfaC mutant E. coli” value (ΔrfaC mutant E. coli) was “some reasonable activity”, the “inhibition of growth of wild-type E. coli” value [3] was “little effect” and the solubility at 2 h (Kinetic solubility; FASSGF, fassgf or other biorelevant) was greater than 8000 µM. For the same compound, the solubility at 2 h (Kinetic solubility; FASSIF) was 359 µM (≈ 161 µg/mL), the solubility at 2 h (Kinetic solubility; FESSIF) was 4700 µM (≈ 2110 µg/mL) and the solubility at 2 h (Kinetic solubility; PBS, aqueous buffer) was 29 µM (≈ 13 µg/mL). For the same compound, the EC50 (T. cruzi epimastigotes) was 3.8 ± 0.5 µM, the “antileishmanial effect in vivo (liver, spleen, bone marrow infection)” value (visceral leishmaniasis; compound alone) was “reasonable antileishmanial effect” and the “antileishmanial effect in vivo (liver, spleen, bone marrow infection), liposomal formulation” value (visceral leishmaniasis; delivered (iv) in a liposomal formulation) was “very effective clearance”. For the same compound, the EC50 [4] was 0.6 ± 0.2 µg/mL (≈ 1.34 µM), the “inhibition of growth of S. aureus” value (S. aureus (FDA209P)) was “effective at inhibiting the bacteria at low concentrations” and the CC50 at 48 h [5] was 16 ± 1 µg/mL (≈ 35.7 µM).
